Laboratory results from ChEMBL document CHEMBL1149730, “Constituents of Eriobotrya japonica. A study of their antiviral properties” (J Nat Prod, 1992).
≈ marks a conversion by molar mass, not a printed value. Calls of active or inactive are those of the source. The rule behind the calls is not given here.

Columns and labels:
[1] = target: Human immunodeficiency virus type 1 reverse transcriptase (Human immunodeficiency virus 1) (UniProt Q72547); assay: Inhibition of HIV1 reverse transcriptase assessed as [3H]dTTP incorporation up to 50 ug/ml by liquid scintillation counting
Sindbis virus [2] = assay: Antiviral activity against Sindbis virus replication in human HelaS3 cells assessed as virus-induced cytopathic effect at 20 ug/ml after 24 hrs at 37 degC by light microscopy; assay type: functional
[3] = Cytotoxicity against human HeLa Ohio cells assessed as maximum non-toxic dose after 24 hrs by neutral red staining; assay type: cell-based; details: read-out: Activity
[4] = Cytotoxicity against human C8166 cells after 5 to 7 days by MTT-formazan method; assay type: cell-based; details: read-out: TC50 (the source's name)
[5] = Cytotoxicity against human HeLaS3 cells assessed as maximum non-toxic dose after 24 hrs by neutral red staining; assay type: cell-based, HeLa S3; details: read-out: Activity
[6] = system: Human immunodeficiency virus 1; assay: Antiviral activity against HIV1 3B replication in human C8166 cells at 100 ug/ml after 5 to 7 days by MTT-formazan method; assay type: functional
rhinovirus A1B [7] = assay: Antiviral activity against HRV1B replication in human Hela Ohio cells assessed as virus-induced cytopathic effect at 50 ug/ml after 24 hrs at 33 degC by light microscopy; assay type: functional, Human rhinovirus 1B
[8] = system: Human immunodeficiency virus 1; assay: Antiviral activity against HIV1 3B replication in human C8166 cells at 20 ug/ml after 5 to 7 days by MTT-formazan method; assay type: functional
[9] = system: Human immunodeficiency virus 1; assay: Antiviral activity against HIV1 3B replication in human C8166 cells at 4 ug/ml after 5 to 7 days by MTT-formazan method; assay type: functional
rhinovirus A1B [10] = assay: Antiviral activity against HRV1B replication in human Hela Ohio cells assessed as virus-induced cytopathic effect at 20 ug/ml after 24 hrs at 33 degC by light microscopy; assay type: functional, Human rhinovirus 1B
Sindbis virus [11] = assay: Antiviral activity against Sindbis virus replication in human HelaS3 cells assessed as virus-induced cytopathic effect at 4 ug/ml after 24 hrs at 37 degC by light microscopy; assay type: functional
rhinovirus A1B [12] = assay: Antiviral activity against HRV1B replication in human Hela Ohio cells assessed as inhibition of virus-induced cytopathic effect at 0.8 ug/ml after 24 hrs at 33 degC by light microscopy; assay type: functional, organism-based; details: Human rhinovirus 1B
rhinovirus A1B [13] = assay: Antiviral activity against HRV1B replication in human Hela Ohio cells assessed as inhibition of virus-induced cytopathic effect at 4 ug/ml after 24 hrs at 33 degC by light microscopy; assay type: functional, Human rhinovirus 1B; details: Rhinovirus A
[14] = system: Human immunodeficiency virus 1; assay: Antiviral activity against HIV1 3B replication in human C8166 cells at 40 ug/ml after 5 to 7 days by MTT-formazan method; assay type: functional
Sindbis virus [15] = assay: Antiviral activity against Sindbis virus replication in human HelaS3 cells assessed as virus-induced cytopathic effect at 50 ug/ml after 24 hrs at 37 degC by light microscopy; assay type: functional
[16] = system: Human immunodeficiency virus 1; assay: Antiviral activity against HIV1 3B replication in human C8166 cells at 8 ug/ml after 5 to 7 days by MTT-formazan method; assay type: functional
[17] = system: Human immunodeficiency virus 1; assay: Antiviral activity against HIV1 3B replication in human C8166 cells at 0.8 ug/ml after 5 to 7 days by MTT-formazan method; assay type: functional
[18] = system: Human immunodeficiency virus 1; assay: Antiviral activity against HIV1 3B replication in human C8166 cells at 100 uM after 5 to 7 days by MTT-formazan method; assay type: functional
[19] = system: Human immunodeficiency virus 1; assay: Antiviral activity against HIV1 3B replication in human C8166 cells at 0.016 ug/ml after 5 to 7 days by MTT-formazan method; assay type: functional

SMILES | Activity [1] | Activity (Sindbis virus [2]) [%] | MNTC at 24 h [3] [µg/mL] | CC50 [4] [µg/mL] | MNTC at 24 h [5] [µg/mL] | Activity [6] [%] | Activity (rhinovirus A1B [7]) [%] | Activity [8] [%] | Activity [9] [%] | Activity (rhinovirus A1B [10]) [%] | Activity (Sindbis virus [11]) [%] | Activity (rhinovirus A1B [12]) | inhibition at 4 µg/mL (rhinovirus A1B [13]) [%] | Activity [14] [%] | Activity (Sindbis virus [15]) [%] | Activity [16] [%] | Activity [17] [%] | Activity [18] [%] | Activity [19] [%]
C[C@@H]1CC[C@]2(C(=O)O)CC[C@]3(C)C(=CC[C@@H]4[C@@]5(C)C[C@@H](O)[C@H](O)[C@@](C)(COC(=O)/C=C/c6ccc(O)cc6)[C@@H]5CC[C@]43C)[C@@H]2[C@]1(C)O | inactive | 100 | 50 | 30 (≈ 46.1 µM) | 20 | 0 | 100 | 0 | – | – | – | – | – | – | – | – | – | – | –
C[C@@H]1CC[C@]2(C(=O)O)CC[C@]3(C)C(=CC[C@@H]4[C@@]5(C)C[C@@H](O)[C@H](OC(=O)/C=C/c6ccc(O)c(O)c6)C(C)(C)[C@@H]5CC[C@]43C)[C@@H]2[C@]1(C)O | inactive | – | 20 | 10 (≈ 15.4 µM) | 4 | – | – | – | 1 | 50 | 100 | inactive | < 25 | – | – | – | – | – | –
C[C@@H]1CC[C@]2(C(=O)O)CC[C@]3(C)C(=CC[C@@H]4[C@@]5(C)C[C@@H](O)[C@H](O)[C@@](C)(COC(=O)/C=C\c6ccc(O)cc6)[C@@H]5CC[C@]43C)[C@@H]2[C@]1(C)O | inactive | 100 | 20 | 50 (≈ 76.8 µM) | 20 | 0 | – | 0 | – | 100 | – | – | – | – | – | – | – | – | –
C[C@@H]1CC[C@]2(C(=O)O)CC[C@]3(C)C(=CC[C@@H]4[C@@]5(C)C[C@@H](O)[C@H](O)[C@@](C)(CO)[C@@H]5CC[C@]43C)[C@@H]2[C@]1(C)O | inactive | – | 50 | 20 (≈ 39.6 µM) | 50 | – | 100 | – | – | – | – | – | – | 0 | 100 | 1 | – | – | –
C[C@@H]1CC[C@]2(C(=O)O)CC[C@]3(C)C(=CC[C@@H]4[C@@]5(C)CC[C@H](O)C(C)(C)[C@@H]5[C@H](O)C[C@]43C)[C@@H]2[C@]1(C)O | inactive | 100 | 20 | 2 (≈ 4.09 µM) | 20 | – | – | – | 0 | 100 | – | – | – | – | – | – | 1 | – | –
C[C@@H]1CC[C@]2(C(=O)O)CC[C@]3(C)C(=CC[C@@H]4[C@@]5(C)C[C@@H](O)[C@@H](O)C(C)(C)[C@@H]5CC[C@]43C)[C@@H]2[C@]1(C)O [EUSCAPHIC ACID] | inactive | 100 | 50 | 20 (≈ 40.9 µM) | 20 | – | 100 | – | – | – | – | – | – | 0 | – | 1 | – | – | –
Cc1cn([C@H]2C[C@H](N=[N+]=[N-])[C@@H](CO)O2)c(=O)[nH]c1=O [ZIDOVUDINE] | – | – | – | > 1000 | – | – | – | – | – | – | – | – | – | – | – | – | – | 100 | 49
C[C@@H]1CC[C@]2(C(=O)O)CC[C@]3(C)C(=CC[C@@H]4[C@@]5(C)CC[C@H](OC(=O)/C=C/c6ccc(O)cc6)[C@@](C)(CO)[C@@H]5CC[C@]43C)[C@@H]2[C@]1(C)O | inactive | 100 | 20 | 30 (≈ 47.3 µM) | 20 | 0 | – | 0 | – | 100 | – | – | – | – | – | – | – | – | –
